Experimental data taken from article PMC6269060, “4-(1H-Pyrazol-1-yl) Benzenesulfonamide Derivatives: Identifying New Active Antileishmanial Structures for Use against a Neglected Disease” (Molecules, 2012).

How the values were obtained:
[1] = tested on: Leishmania infantum (L. chagasi syn.) promastigotes; experiment: In vitro antileishmanial drug assay, L. infantum promastigotes; format: cell-based, Leishmania infantum (syn. chagasi) MCAN/BR/97/P142 strain; settings: for S.I (selectivity index: CC50 drug/IC50 drug), Leishmania infantum: CC50 on murine peritoneal cells / IC50 on L. infantum promastigotes; for IC50: Leishmania infantum, promastigotes, 24 h, 26 °C, mean ± S.D. of three determinations
Method: (§1) Parasites in metacyclic phase (4 × 10^6 parasites/mL) were incubated with the derivatives (40–160 mg/mL) solubilized in dimethyl sulphoxide (DMSO, Sigma Chemical Co., St. Louis, MO, USA) at 26 °C for 24 h. The results were expressed as IC50/24 h, the concentration of a compound that caused a 50% reduction in survival/viability compared with non-treated culture. Pentamidine was used as reference drug and all tests were carried out in triplicate. Promastigotes of L. amazonensis (MHOM/BR/77/LTB0016 strain) and L. infantum (syn. chagasi) (MCAN/BR/97/P142 strain) were grown in Schneider’s insect medium (Sigma) at 26 °C in pH 7.2 supplemented with 10–20% (v/v) heat-inactivated fetal calf serum.

[2] = In vitro cytotoxicity (MTT); format: cell-based, BALB/c mice; settings: BALB/c, mouse, murine peritoneal adherent cells
Method: The BALB/c mice from Laboratory Animals Nucleus (UFF) were sacrificed to obtain peritoneal cells and for both infection and isolation of Leishmania. The protocol assays was approved by the Institutional Committee of the Center for Biological Evaluation and Care of Research Animals (CEUA-UFF).
BALB/c mice peritoneal cavity cells (4 × 10^5cells/well) were incubated with the derivatives (10, 20, 40 and 80 µg/mL) in 96 wells plate for 24 h in […] RPMI 1640 medium, supplemented with 1 mmol·L^−1L-glutamine, […], penicillin G (10^5 IU·L^−1) and streptomycin sulfate (0.10 g·L^−1) at 37 °C in a humidified 5% CO2 atmosphere. After that, 3-[4,5-dimethylthiazol-2-yl]-2,5-diphenyltetrazolium bromide, MTT (Sigma) was added and the reaction was interrupted with DMSO after 2 h. The results were determined in 540 nm by using a MicroQuant spectrophotometer (Biotek-Instrument Inc., Winooski, VT, USA). All assays were repeated at least four times in quadruplicate. The cytotoxicity profile was expressed as CC50/24 h, the concentration of a compound that caused cytotoxicity compared to non-treated cultures. Index of selectivity (IS) was defined as the ratio of the CC50 value on the macrophage to the IC50 value on the L. amazonensis or L. infantum strains (promastigotes).

[3] = tested on: Leishmania amazonensis promastigotes; experiment: In vitro antileishmanial drug assay, L. amazonensis promastigotes; format: cell-based, Leishmania amazonensis MHOM/BR/77/LTB0016 strain; settings: for S.I (selectivity index: CC50 drug/IC50 drug), Leishmania amazonensis: CC50 on murine peritoneal cells / IC50 on L. amazonensis promastigotes; for IC50: Leishmania amazonensis, promastigotes, 24 h, 26 °C, mean ± S.D. of three determinations
Method: as §1

| SMILES | S.I (selectivity index: CC50 drug/IC50 drug), Leishmania infantum [1] | IC50 [1] | CC50 at 24 h [2] | S.I (selectivity index: CC50 drug/IC50 drug), Leishmania amazonensis [3] | IC50 [3] |
| --- | --- | --- | --- | --- | --- |
| Cc1nn(-c2ccc(S(=O)(=O)Nc3ccccc3)cc2)c(Cl)c1Br [Compound 3b, 4-(4-Bromo-5-chloro-3-methyl-1H-pyrazol-1-yl)-N-phenylbenzenesulfonamide] | 2.44 | 59 ± 10 µM | 144 µM | 2.05 | 70 ± 20 µM |
| Cc1nn(-c2ccc(S(=O)(=O)Nc3ccc(Cl)cc3)cc2)c(Cl)c1Br [Compound 3e, 4-(4-Bromo-5-chloro-3-methyl-1H-pyrazol-1-yl)-N-(4-chlorophenyl)benzenesulfonamide] | 1.78 | 65 ± 40 µM | 116 µM | 1.61 | 72 ± 50 µM |
| Cc1nn(-c2ccc(S(N)(=O)=O)cc2)c(Cl)c1Br [Compound 3a, 4-(4-Bromo-5-chloro-3-methyl-1H-pyrazol-1-yl)benzenesulfonamide] | 0.78 | 228 ± 190 µM |  | 0.78 | 228 ± 330 µM |
| Cc1cc(Cl)n(-c2ccc(NS(=O)(=O)c3ccccc3)cc2)n1 [Compound 3f, N-[4-(5-Chloro-3-methyl-1H-pyrazol-1-yl)phenyl]benzenesulfonamide] | 0.76 | 138 ± 110 µM |  | 0.68 | 153 ± 220 µM |
| Cc1ccc(NS(=O)(=O)c2ccc(-n3nc(C)c(Br)c3Cl)cc2)cc1 [Compound 3c, 4-(4-Bromo-5-chloro-3-methyl-1H-pyrazol-1-yl)-N-(4methylphenyl)benzenesulfonamide] | 1.33 | 123 ± 50 µM |  | 0.51 | 318 ± 590 µM |
| Cc1nn(-c2ccc(S(=O)(=O)Nc3ccc(Br)cc3)cc2)c(Cl)c1Br [Compound 3d, 4-(4-Bromo-5-chloro-3-methyl-1H-pyrazol-1-yl)-N-(4-bromophenyl)benzenesulfonamide] | 0.49 | 99 ± 80 µM |  | 0.65 | 75 ± 10 µM |
| N=C(N)c1ccc(OCCCCCOc2ccc(C(=N)N)cc2)cc1 [Pentamidine, reference compound] |  | 62 µM | 54 µM |  | 21 µM |
| Cc1ccc(S(=O)(=O)Nc2ccc(-n3nc(C)cc3Cl)cc2)cc1 [Compound 3g, N-[4-(5-Chloro-3-methyl-1H-pyrazol-1-yl)phenyl]-4-methylbenzenesulfonamide] | 1.21 | 149 ± 120 µM |  | 1.33 | 136 ± 54 µM |
